Reference: patent US9469682B2, “Methods of treatment using natriuretic polypeptides” (Mayo Foundation for Medical Education and Research, priority 2006, dated 2016)

How the values were obtained:
normal dogs = assay: Intravenous bolus of polypeptide in normal dogs (renal, haemodynamic and hormonal effects); type: in vivo, dog; conditions: 25 μg per kg IV bolus; for mean arterial blood pressure: FIG. 6; for plasma vasopressin levels: FIG. 7; for vasodilatory effects: concluded from mean arterial blood pressure and renal blood flow; for renal blood flow: FIG. 8
Protocol: Polypeptides with the sequences set forth in FIGS. 1-3 were designed and synthesized. The polypeptide set forth in FIG. 1 is referred to as an ABC-NP polypeptide; the polypeptide set forth in FIG. 2 is referred to as an ABC-NP1 polypeptide; and the polypeptide set forth in FIG. 3 is referred to as a BC-NP2 polypeptide. The biological effects of intravenous ABC-NP, ABC-NP1, or BC-NP2 infusion were tested in normal dogs. Briefly, five normal dogs were infused with 25 μg of ABC-NP, ABC-NP1, or BC-NP2 per kg administered as an IV bolus. Urinary sodium excretion, urine flow, mean arterial blood pressure, plasma vasopressin levels, and renal blood flow were measured as described elsewhere (Chen et al., Am. J. Physiol. Regul. Integr. Comp. Physiol., 288: R1093-R1097 (2005) and Haber et al., J. Clin. Endocrinol. Metab., 29:1349-1355 ([…])). The results were compared to results obtained from dogs treated with 25 μg of BNP per kg administered as an IV bolus.

[1] = system: human cardiac fibroblasts; assay: cGMP generation in cardiac fibroblast cells (competitive RIA); type: cell-based; conditions: 10^−11 M, 10^−8 M, or 10^−6 M for 10 minutes, FIGS. 9-11
Protocol: The biological effects of ABC-NP, ABC-NP1, or BC-NP2 on cardiac fibroblast cells were tested in vitro. Briefly, 80-90% confluent cardiac fibroblast cells were incubated in Hank's balanced salt solution (InVitrogen) containing 20 mmol/L N-[2-hydroxyethyl]piperazine-N′[2-ethanesulfonic acid], 0.1% bovine serum albumin, and 0.5 mmol/L 3-isobutyl-1-methylzanthine (Sigma). Treated cells received ANP (10^−6M), BNP (10^−6M), CNP (10^−6M), ABC-NP (10^−11M, 10^−8M, or 10^−6M), ABC-NP1 (10^−11 M, 10^−8 M, or 10^−6 M), or BC-NP2 (10^−11M, 10^−8 M, or 10^−6 M) for 10 minutes. Cells were lysed in 6% TCA and sonicated for 10 minutes. The samples were ether extracted four times in four volumes of ether, dried, and reconstituted in 300 μL cGMP assay buffer. The samples were assayed using a competitive RIA cGMP kit (Perkin-Elmer, Boston, Mass.). Briefly, samples and standards were incubated with 100 μL anti-human cGMP polyclonal antibody and I^125-antigen for 18 hours. cGMP assay buffer was added to the samples, and they were centrifuged for 20 minutes at 2500 rpm. The free fraction was aspirated off; the bound fraction was counted; and concentrations determined Samples were corrected for dilution factors, and values were expressed as pmoles/mL. There is no cross-reactivity with ANP, BNP, or CNP, and there is <0.001% reactivity with cAMP, GMP, GDP, ATP, and GTP.

| Substance | mean arterial blood pressure (normal dogs) | plasma vasopressin levels (normal dogs) | aquaretic and natriuretic effects (urinary sodium excretion, urine flow) (normal dogs; FIGS. 4 and 5) | vasodilatory effects (normal dogs) | cGMP activation [1] | renal blood flow (normal dogs) | renal effects as compared to ABC-NP (normal dogs; FIGS. 4 and 5) | prolonged aquaretic and diuretic renal actions (normal dogs; FIGS. 4 and 5) |
| --- | --- | --- | --- | --- | --- | --- | --- | --- |
| ABC-NP: 33-residue polypeptide: human ANP residues 11-15, human CNP 1-22 with positions 15-17 changed to Arg-Glu-Ala, human BNP residues 27-32 (RMDRIGLSKGCFGLKLDRIREASGLGCKVLRRH; combination of SEQ ID NOs1, 2, and 3) | no effect | did not increase | resulted in aquaretic and natriuretic effects | does not have vasodilatory effects | did not | – | – | – |
| BC-NP2: 28-residue polypeptide: human CNP 1-22 with positions 15-17 changed to arginine, glutamic acid, alanine, then human BNP residues 27-32 (GLSKGCFGLKLDRIREASGLGCKVLRRH; combination of SEQ ID NOs2 and 3) | did not result in a decrease | – | – | does not have vasodilatory effects | did not | did not result in a decrease in mean arterial blood pressure or an increase in renal blood flow | about 50% | – |
| ABC-NP1: 33-residue polypeptide: human mature ANP residues 11-15, human mature CNP residues 1-22, human mature BNP residues 27-32 (RMDRIGLSKGCFGLKLDRIGSMSGLGCKVLRRH; combination of SEQ ID NOs1, 7, and 3) | reduction | strong trend for increasing | – | – | activated cGMP | increase | – | no prolonged aquaretic and diuretic renal actions observed |
| BNP: natriuretic peptide of myocardial cell origin; main form a 32 amino acid polypeptide with a ring structure; comparator [reference compound] | – | increased | – | – | – | – | – | – |
